Experimental data: US12570656B2, “Purine compounds for treating disorders” (MARVEL BIOTECHNOLOGY, priority 2020, dated 2026)
Where “and” joins values, the source holds several entries; their conditions need not be identical. Identical values can stand only once. Like-named read-outs stand apart in the source and are kept apart here.

Legend:
[1] = Brain pharmacokinetics and brain/plasma ratio in male CD-1 mice (1 mg/kg i.v.); type: in vivo; details: for concentration at 5 min / concentration at 0.25 h / concentration at 0.5 h / concentration at 1 h / concentration at 2 h / concentration at 4 h / concentration at 6 h / concentration at 8 h: intravenous
Procedure: (§1) Male CD-1 mice were given either bolus 1 mg/kg i.v. or 3 mg/kg p.o. of the indicated compounds and plasma or brain concentrations were measured.
(§2) Where: • C0 concentration extrapolated to time zero following an i.v. dose • tmax time at which maximum concentration is observed • Cmax maximum observed concentration • Apparent t1/2 apparent terminal half-life • AUC0-tlast area under the concentration vs time curve from time 0 to the time of the last measurable concentration • AUC0-inf area under the concentration vs time curve from time 0 to infinity • CL systemic clearance • MRT0-inf mean residence time from time zero to infinity • Vss steady-state volume of distribution • F oral bioavailability=(Dose^iv*AUC^po)/(Dose^po*AUC^iv)*100

[2] = Plasma pharmacokinetics in male CD-1 mice (1 mg/kg i.v. or 3 mg/kg p.o.); details: CD-1, mouse, in vivo
Procedure: as §1, §2

[3] = male, CD-1, mouse, iv, brain, i.v. 1 mg/kg

- Brain concentration ([1]; 1 mg/kg bolus i.v., 5 min, individual animals 1-3): 423 ng/g and 691 ng/g
- Brain concentration ([1]; 1 mg/kg bolus i.v., 0.25 h, individual animals 1-3): 474 ng/g and 418 ng/g
- Brain concentration ([1]; 1 mg/kg bolus i.v., 0.5 h, individual animals 1-3): 230 ng/g and 235 ng/g
- Brain concentration ([1]; 1 mg/kg bolus i.v., 1 h, individual animals 1-3): 209 ng/g and 237 ng/g
- Brain concentration ([1]; 1 mg/kg bolus i.v., 2 h, individual animals 1-3): 180 ng/g and 156 ng/g
- Brain concentration ([1]; 1 mg/kg bolus i.v., 4 h, individual animals 1-3): 76.8 ng/g and 79.5 ng/g
- Brain concentration ([1]; 1 mg/kg bolus i.v., 6 h, individual animals 1-3): 50.1 ng/g and 32.6 ng/g
- Brain concentration ([1]; 1 mg/kg bolus i.v., 8 h, individual animals 1-3): 22.2 ng/g and 17.1 ng/g
- AUC0-tlast ([1]; brain, i.v. 1 mg/kg): 938 ng·h/g
- AUC(0-inf) ([1]; brain, i.v. 1 mg/kg): 1011 ng·h/g
- Kp at 5 min ([1]; male, CD-1, mouse, brain and plasma, iv, 1 mg/kg, 1 mg/kg bolus i.v., 5 min, individual animals 1-3, read-out: Brain/plasma concentration ratio): 0.726
- Kp at 5 min ([1]; male, CD-1, mouse, brain and plasma, iv, 1 mg/kg, 1 mg/kg bolus i.v., 5 min, read-out: Brain/plasma concentration ratio, Mean): 0.828
- Kp at 0.25 h ([1]; male, CD-1, mouse, brain and plasma, iv, 1 mg/kg, 1 mg/kg bolus i.v., 0.25 h, individual animals 1-3, read-out: Brain/plasma concentration ratio): 0.42
- Kp at 0.25 h ([1]; male, CD-1, mouse, brain and plasma, iv, 1 mg/kg, 1 mg/kg bolus i.v., 0.25 h, read-out: Brain/plasma concentration ratio, Mean): 0.516
- Kp at 0.5 h ([1]; male, CD-1, mouse, brain and plasma, iv, 1 mg/kg, 1 mg/kg bolus i.v., 0.5 h, read-out: Brain/plasma concentration ratio, Mean): 0.483
- Kp at 8 h ([1]; male, CD-1, mouse, brain and plasma, iv, 1 mg/kg, 1 mg/kg bolus i.v., 8 h, individual animals 1-3, read-out: Brain/plasma concentration ratio): 2.76
- Kp at 8 h ([1]; male, CD-1, mouse, brain and plasma, iv, 1 mg/kg, 1 mg/kg bolus i.v., 8 h, read-out: Brain/plasma concentration ratio, Mean): 2.25
- concentration at 5 min ([1]; male, CD-1, mouse, brain, 1 mg/kg, 1 mg/kg bolus i.v., 5 min, individual animals 1-3, read-out: Brain concentration): 545 ng/g
- concentration at 5 min ([1]; male, CD-1, mouse, brain, 1 mg/kg, 1 mg/kg bolus i.v., 5 min, read-out: Brain concentration, Mean): 553 ng/g
- concentration at 0.25 h ([1]; male, CD-1, mouse, brain, 1 mg/kg, 1 mg/kg bolus i.v., 0.25 h, individual animals 1-3, read-out: Brain concentration): 272 ng/g
- concentration at 0.25 h ([1]; male, CD-1, mouse, brain, 1 mg/kg, 1 mg/kg bolus i.v., 0.25 h, read-out: Brain concentration, Mean): 388 ng/g
- concentration at 0.5 h ([1]; male, CD-1, mouse, brain, 1 mg/kg, 1 mg/kg bolus i.v., 0.5 h, individual animals 1-3, read-out: Brain concentration): 372 ng/g
- concentration at 0.5 h ([1]; male, CD-1, mouse, brain, 1 mg/kg, 1 mg/kg bolus i.v., 0.5 h, read-out: Brain concentration, Mean): 279 ng/g
- concentration at 1 h ([1]; male, CD-1, mouse, brain, 1 mg/kg, 1 mg/kg bolus i.v., 1 h, individual animals 1-3, read-out: Brain concentration): 225 ng/g
- concentration at 1 h ([1]; male, CD-1, mouse, brain, 1 mg/kg, 1 mg/kg bolus i.v., 1 h, read-out: Brain concentration, Mean): 224 ng/g
- concentration at 2 h ([1]; male, CD-1, mouse, brain, 1 mg/kg, 1 mg/kg bolus i.v., 2 h, individual animals 1-3, read-out: Brain concentration): 171 ng/g
- concentration at 2 h ([1]; male, CD-1, mouse, brain, 1 mg/kg, 1 mg/kg bolus i.v., 2 h, read-out: Brain concentration, Mean): 169 ng/g
- concentration at 4 h ([1]; male, CD-1, mouse, brain, 1 mg/kg, 1 mg/kg bolus i.v., 4 h, individual animals 1-3, read-out: Brain concentration): 107 ng/g
- concentration at 4 h ([1]; male, CD-1, mouse, brain, 1 mg/kg, 1 mg/kg bolus i.v., 4 h, read-out: Brain concentration, Mean): 87.8 ng/g
- concentration at 6 h ([1]; male, CD-1, mouse, brain, 1 mg/kg, 1 mg/kg bolus i.v., 6 h, individual animals 1-3, read-out: Brain concentration): 39.8 ng/g
- concentration at 6 h ([1]; male, CD-1, mouse, brain, 1 mg/kg, 1 mg/kg bolus i.v., 6 h, read-out: Brain concentration, Mean): 40.8 ng/g
- concentration at 8 h ([1]; male, CD-1, mouse, brain, 1 mg/kg, 1 mg/kg bolus i.v., 8 h, individual animals 1-3, read-out: Brain concentration): 33.4 ng/g
- concentration at 8 h ([1]; male, CD-1, mouse, brain, 1 mg/kg, 1 mg/kg bolus i.v., 8 h, read-out: Brain concentration, Mean): 24.2 ng/g
- Kp at 1 h ([1]; male, CD-1, mouse, brain/plasma, iv, 1 mg/kg, 1 mg/kg bolus i.v., 1 h, individual animals 1-3, read-out: Brain/plasma concentration ratio): 0.534
- Kp at 1 h ([1]; male, CD-1, mouse, brain/plasma, iv, 1 mg/kg, 1 mg/kg bolus i.v., 1 h, read-out: Brain/plasma concentration ratio, Mean): 0.551
- Kp at 2 h ([1]; male, CD-1, mouse, brain/plasma, iv, 1 mg/kg, 1 mg/kg bolus i.v., 2 h, individual animals 1-3, read-out: Brain/plasma concentration ratio): 0.71
- Kp at 2 h ([1]; male, CD-1, mouse, brain/plasma, iv, 1 mg/kg, 1 mg/kg bolus i.v., 2 h, read-out: Brain/plasma concentration ratio, Mean): 0.655
- Kp at 4 h ([1]; male, CD-1, mouse, brain/plasma, iv, 1 mg/kg, 1 mg/kg bolus i.v., 4 h, individual animals 1-3, read-out: Brain/plasma concentration ratio): 0.87
- Kp at 4 h ([1]; male, CD-1, mouse, brain/plasma, iv, 1 mg/kg, 1 mg/kg bolus i.v., 4 h, read-out: Brain/plasma concentration ratio, Mean): 1
- Kp at 6 h ([1]; male, CD-1, mouse, brain/plasma, iv, 1 mg/kg, 1 mg/kg bolus i.v., 6 h, read-out: Brain/plasma concentration ratio, Mean): 0.96
- Kp ([1]; male, CD-1, mouse, brain/plasma, iv, 1 mg/kg, i.v. 1 mg/kg, read-out: Brain/plasma AUC0-inf ratio): 0.701
- Cmax [1, 3]: 553 ng/g
- Tmax [1, 3]: 5 min
- half-life ([1]; male, CD-1, mouse, iv, brain, i.v. 1 mg/kg, read-out: Apparent t1/2 (converted)): 2.1 h
- MRT inf ([1]; male, CD-1, mouse, iv, brain, i.v. 1 mg/kg, read-out: MRT0-inf): 2.96 h
- bioavailability [2]: 30.9%
- AUC(0-inf) ([2]; iv, 1 mg/kg): 1440 ng·h/mL
- AUC(0-t) ([2]; iv, 1 mg/kg): 1420 ng·h/mL
- Cmax ([2]; iv, 1 mg/kg): 745 ng/mL
- MRT inf ([2]; iv, 1 mg/kg): 1.96 h
- Tmax ([2]; iv, 1 mg/kg): 0.25 h
- Vd ([2]; iv, 1 mg/kg): 1.36 L/kg
- clearance ([2]; iv, 1 mg/kg): 11.6 mL/min/kg
- half-life ([2]; iv, 1 mg/kg): 1.35 h
- AUC(0-inf) ([2]; po, 3 mg/kg): 1340 ng·h/mL
- AUC(0-t) ([2]; po, 3 mg/kg): 1340 ng·h/mL
- Cmax ([2]; po, 3 mg/kg): 250 ng/mL
- MRT inf ([2]; po, 3 mg/kg): 3.82 h
- Tmax ([2]; po, 3 mg/kg): 1 h
- half-life ([2]; po, 3 mg/kg): 2.2 h
SMILES: CCn1c(=O)c2c(nc(/C=C/c3ccc(OC)c(OC)c3)n2C)n(CC)c1=O [Istradefylline, reference compound]
